Our source for the mean histopathology score values is US20210283064A1, “STABLE, BIOADHESIVE, AND DIFFUSION-RESTRICTIVE COACERVATE” (The Chinese University of Hong Kong, priority 2020, published 2021).

For the assay, the system named is DSS-induced colitis. Nature of the assay: Rat model of DSS-induced colitis. The following applies: H&E-stained colon sections, oral gavage days 1, 3, 5, sacrifice day 7. The class given is in vivo, SD rats.

Text: SD rats weighing around 250 g were given 4.5% DSS in drinking water for 7 days to develop acute colitis. Clinical manifestations of the colitis, such as severe rectal bleeding, watery diarrhea, and colonic edema were observed after 7 days. […] Untreated colitic SD rats were used as the negative control. All SD rats were allowed unrestricted access to water and standard laboratory diet before and after oral gavage and sacrificed on day 7 for further evaluation of colon weight and length, histological severity, IBD-associated colonic myeloperoxidase (MPO)-activity, mRNA levels of tight junction-associated proteins (ZO-1 and occludin-1) and pro-inflammatory cytokines, such as interleukin IL-1β and tumor necrosis factor (TNF) in the distal colon.

On to “dexamethasone sodium phosphate [Dex-P/PBS]”, for which the mean histopathology score is 1.917.
